# Experimental data taken from patent publication US20240246963A1, “BIFUNCTIONAL COMPOUNDS AND PHARMACEUTICAL USES THEREOF” (RISEN (SUZHOU) PHARMA TECH CO., LTD., priority 2022, published 2024).
# Key:
# [1] = tested on: NCI-H727 cells (G12V); test: Cell proliferation study (Cell Titer Glo, 72 hours), NCI-H727; assay type: cell-based; settings: Homo sapiens
# Method: (§1) Aspc-1(Cobioer, CBP60546), GP2D(Cobioer, CBP60683), Mia paca2 (Cobioer, CBP60136), NCI-H358 (Cobioer, CBP60544), H727 (Cobioer, CBP60182), MKN-1 (Cobioer, CBP60486), and PSN1 (Cobioer, CBP61215) cells in exponential growth phase were seeded into a 96-well plate (Greiner, 655090) at density of 3E3/well. Cells were cultured overnight at 37° C. with 5% CO2. On the next day, cells were treated with compound at various concentrations for 72 hours in 37° C., 5% CO2 incubator (final DMSO concentration was 0.1%). After treatment, 100 μL Cell Tier Glo (Promega, G7573) were added to every well on the cell plate and incubated at room temperature (RT) for 10 minutes. Cell growth status was measured with Cell Tier Glo (Promega, G7573) following manufacturer's directions. Inhibition level was calculated according to the following formula: […]
# (§2) where the “Maximum Signal” are signal of wells containing DMSO without compound; the “Minimum Signal” are signal of wells recorded at Day 0 prior to commencement of the experiment; and the “Test compound signal” are signal of wells containing compound at established concentrations.
# (§3) The inhibition curve was obtained with GraphPad 7.0 software using four-parameter equation.
# [2] = tested on: PSN-1 cells (G12R); test: Cell proliferation study (Cell Titer Glo, 72 hours), PSN-1; assay type: cell-based; settings: Homo sapiens, PSN1
# Method: as §1, §2, §3
# [3] = tested on: AsPc-1 cells (G12D); test: Cell proliferation study (Cell Titer Glo, 72 hours), AsPc-1; assay type: cell-based; settings: Homo sapiens, ASPC1
# Method: as §1, §2, §3
# [4] = tested on: GP2D cells (G12D); test: Cell proliferation study (Cell Titer Glo, 72 hours), GP2D; assay type: cell-based
# Method: as §1, §2, §3
# [5] = tested on: MKN1 cells (WT); test: Cell proliferation study (Cell Titer Glo, 72 hours), MKN1; assay type: cell-based; settings: Homo sapiens, MKN-1
# Method: as §1, §2, §3
# [6] = target: T1, RAS G12D protein (Homo sapiens, UniProt P01116, G12D); test: Protein degradation study (western blot) in Aspc-1 cells; assay type: cell-based; settings: for DC50: half-maximum degradation concentration on G12D in Aspc-1 cells; for percent protein degradation at 0.005 µM: 0.005 μM compound; for percent protein degradation at 0.05 µM: 0.05 μM compound; for Dmax: ASPC1
# T1 construct: host or cells: Aspc-1 (AsPC-1) cells
# T1 sequence (P01116 1-188 isoform P01116-2 G12D): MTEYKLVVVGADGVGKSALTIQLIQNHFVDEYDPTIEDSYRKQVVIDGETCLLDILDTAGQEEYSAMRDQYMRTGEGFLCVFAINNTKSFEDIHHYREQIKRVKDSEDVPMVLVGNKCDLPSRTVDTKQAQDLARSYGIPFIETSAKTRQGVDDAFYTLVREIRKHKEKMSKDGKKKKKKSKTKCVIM
# Method: Aspc-1 (Cobioer, CBP60546) cells in exponential growth phase were inoculated on a 6-well cell culture plate (Corning, 3516) at density of 1E6/well; and cells in the plate were cultured in a 37° C. incubator containing 5%-carbon dioxide. The next day, test compounds were dissolved in DMSO (Sigma, RNBF5902) for the preparation of a 10-mM concentration stock solution. The stock solution was diluted with complete medium (RPMI-1640 supplemented with 10% fetal bovine serum, 1% penicillin-streptomycin), yielding working solutions of various concentrations. The plate, after the addition of compounds, was placed in a 5% carbon dioxide incubator, and incubated at 37° C. for 24 hours (final DMSO concentration was 0.1%). The plate was then removed from the incubator, and the cells were washed twice with precooled PBS (Gibco, 14190250), followed by addition of 80 μL RIPA (CST, 9806S) lysis buffer (containing protease inhibitor (Invitrogen™, AM2696)) to each well. The adherent cells were scraped off with a cell scraper, and the cell lysate was transferred to a 1.5 mL centrifuge tube followed with a 30-minute incubation on ice. The lysate was then clarified with centrifugation at 12000 rpm for 10 min at 4° C. The supernatant was transferred into a new 1.5 mL centrifuge tube, and protein concentration was measured with BCA protein detection kit (Thermo Fisher, 23225). G12D protein level was assessed by western blot. A mixture of cell lysate (40 μL) and loading buffer (10 μL, 5×SDS (Beyotime, P0015L)) was denatured in a water-bath at 95° C. for 10 min. The denatured protein sample, at 30 μg/well, was loaded into a corresponding well of a 4-20% Bis-Tris gel (Kingsley, M00656). Protein samples were initially electrophoresed at 80 V for 30 minutes, followed by 120 V for 40 minutes, until the bromophenol blue strip ran to an appropriate position. After electrophoresis, iBlot2 (Life Technologies, IB21001) was used to transfer the separated samples onto PVDF film. The PVDF membrane was washed with double-distilled water and then blocked in TBST (Thermo Scientific, 28360) buffer containing 5% non-fat milk, for 2 hours. Blocked membrane was rinsed with tris-buffered saline tween-2 (Thermo Scientific, 28360, TBST) three times, 10 minutes each. Membrane was then incubated with 1:1000 diluted RAS Gi2D primary antibody (CST, cat #14429S) overnight at 4° C. Membrane was rinsed in a way described previously followed by 1 hour incubation of secondary antibody at room temperature. After washing the film for three times with TBST, ECL color developing solution was applied, and image was captured with Biorad Chemi Doc gel imager. The band gray value was quantified (Image Lab), and protein degradation level was calculated according to the following formulas:
# Level of RAS G12D protein expression=(RAS G12D−compound/β-Actin)−compound/(RAS G12D−DMSO/β-Actin−DMSO)
# Level of degradation (%)=(1−Rate of RAS G12D protein expression)×100
# Symbols of −, +, ++, +++, ++++, +++++ indicate that the degradation level of Ras protein induced by test compounds was 10% or less, 10 to 30%, 30 to 60%, 60 to 70%, 70 to 75%, and greater than 75%, respectively. “NT” indicates not tested.
# “NT” indicates not tested.
# [7] = tested on: NCI-H358 cells (G12C); test: Cell proliferation study (Cell Titer Glo, 72 hours), NCI-H358; assay type: cell-based; settings: Homo sapiens
# Method: as §1, §2, §3
# [8] = Pharmacokinetics in male ICR mice; assay type: in vivo; settings: mouse, plasma, IV (3 mg/kg)
# [9] = ASPC1, 24 h, Aspc-1 cells, 24 hours, read-out: Rate of protein degradation (%)
IC50 [1],IC50 [3],IC50 [5],"percent protein degradation at 0.01 µM ([6]; ASPC1, 24 h, 0.010 μM compound, Aspc-1 cells, 24 hours, read-out: Rate of protein degradation (%))","percent protein degradation at 0.1 µM ([6]; ASPC1, 24 h, 0.1 μM compound, Aspc-1 cells, 24 hours, read-out: Rate of protein degradation (%))",DC50 [6],IC50 [7],"percent protein degradation at 0.001 µM ([6]; ASPC1, 24 h, 1 nM compound, Aspc-1 cells, 24 hours, read-out: Rate of protein degradation (%))","percent protein degradation at 0.005 µM [6, 9]","percent protein degradation at 0.05 µM [6, 9]",Dmax ([6]; G12D in Aspc-1 cells),AUC(0-t) [8],half-life [8],DC50 ranking among test compounds ([6]; G12D in Aspc-1 cells),SMILES,IC50 [2],IC50 [4]
2.46 nM,488 nM,405 nM,60 to 70%,60 to 70%,1 to 10 nM,–,–,–,–,–,–,–,–,CCc1c(F)ccc2cc(O)cc(-c3ncc4c(N5CCC[C@@](C)(O)C5)nc(OCC5(CN6CCC(C(=O)N7CCC8(CC7)CC(N7CCC(c9ccc%10c(C%11CCC(=O)NC%11=O)nn(C)c%10c9)CC7)C8)CC6)CC5)nc4c3F)c12 (some centres unmarked) [Compound 85],488 nM,242 nM
4.45 nM,12.4 nM,–,–,–,< 1 nM,64.8 nM,70 to 75%,70 to 75%,30 to 60%,73%,–,–,–,CCc1c(F)ccc2cc(O)cc(-c3ncc4c(N5CCC[C@@](C)(O)C5)nc(OCC5(CN6CCC7(CC6)CC(N6CCC(c8ccc9c(c8)CN(C8CCC(=O)NC8=O)C9=O)CC6)C7)CC5)nc4c3F)c12 (some centres unmarked) [Compound 130],–,0.219 nM
0.309 nM,2.32 nM,–,–,–,< 1 nM,6.24 nM,–,60 to 70%,> 75%,78%,–,–,–,CCc1c(F)ccc2cc(O)cc(-c3ncc4c(N5CCC[C@]6(CCO6)C5)nc(OCC5(CN6CCC7(CC6)CC(N6CCC(c8cc9c(cc8F)c(C8CCC(=O)NC8=O)nn9C)CC6)C7)CC5)nc4c3F)c12 (some centres unmarked) [Compound 205],–,0.289 nM
0.8 nM,63.5 nM,–,–,–,1 to 10 nM,10.3 nM,–,30 to 60%,> 75%,71%,–,–,–,CCc1c(F)ccc2cc(O)cc(-c3ncc4c(N5CCC[C@@](C)(O)C5)nc(OCC5(CN6CCC7(CC6)CC(N6CCC(c8cc9c(cc8F)c(N8CCC(=O)NC8=O)nn9C)CC6)C7)CC5)nc4c3F)c12 [Compound 235],–,–
–,–,–,–,–,11 to 50 nM,–,–,> 75%,30 to 60%,73%,–,–,–,CCc1cccc2cc(O)cc(-c3ncc4c(N5CCC[C@]6(CCO6)C5)nc(OCC5(CN6CCC7(CC6)CC(N6CCC(c8cc9c(cc8F)c(N8CCC(=O)NC8=O)nn9C)CC6)C7)CC5)nc4c3F)c12 [Compound 238],–,–
–,–,–,–,–,11 to 50 nM,–,–,60 to 70%,30 to 60%,71%,–,–,–,Cn1nc(N2CCC(=O)NC2=O)c2cc(F)c(C3CCN(C4CC5(CCN(CC6(COc7nc(N8CCC[C@]9(CCO9)C8)c8cnc(-c9cc(O)cc%10ccc(F)c(F)c9%10)c(F)c8n7)CC6)CC5)C4)CC3)cc21 [Compound 241],–,–
–,–,–,–,–,1 to 10 nM,–,–,30 to 60%,> 75%,74%,–,–,–,CCc1c(F)ccc2cc(O)cc(-c3ncc4c(N5CCC[C@@](C)(O)C5)nc(OCC5(CN6CCC7(CC6)CC(N6CCC(c8cc9c(cc8F)c(N8CCC(=O)NC8=O)nn9C)C(F)(F)C6)C7)CC5)nc4c3F)c12 (some centres unmarked) [Compound 243],–,–

# Second part, the molecule before the results:
SMILES,IC50 [1],IC50 [3],IC50 [5],"percent protein degradation at 0.01 µM ([6]; ASPC1, 24 h, 0.010 μM compound, Aspc-1 cells, 24 hours, read-out: Rate of protein degradation (%))","percent protein degradation at 0.1 µM ([6]; ASPC1, 24 h, 0.1 μM compound, Aspc-1 cells, 24 hours, read-out: Rate of protein degradation (%))",DC50 [6],IC50 [7],"percent protein degradation at 0.001 µM ([6]; ASPC1, 24 h, 1 nM compound, Aspc-1 cells, 24 hours, read-out: Rate of protein degradation (%))","percent protein degradation at 0.005 µM [6, 9]","percent protein degradation at 0.05 µM [6, 9]",Dmax ([6]; G12D in Aspc-1 cells),AUC(0-t) [8],half-life [8],DC50 ranking among test compounds ([6]; G12D in Aspc-1 cells),IC50 [2],IC50 [4]
CCc1c(F)ccc2cc(O)cc(-c3ncc4c(N5CCC[C@@](C)(O)C5)nc(OCC5(CN6CCC7(CC6)CC(N6CCC(c8ccc9c%10c(cccc8%10)C(=O)N9C8CCC(=O)NC8=O)CC6)C7)CC5)nc4c3F)c12 (some centres unmarked) [Compound 137],0.46 nM,65.6 nM,–,–,–,< 1 nM,438 nM,–,–,–,62%,1280 ng·h/mL,7.97 h,–,–,–
CCc1c(F)ccc2cc(O)cc(-c3ncc4c(N5CCC[C@]6(CCO6)C5)nc(OCC5(CN6CCC7(CC6)CC(N6CCC(c8ccc9c%10c(cccc8%10)C(=O)N9C8CCC(=O)NC8=O)CC6)C7)CC5)nc4c3F)c12 (some centres unmarked) [Compound 179a],18.5 nM,57.8 nM,–,–,–,< 1 nM,126 nM,–,> 75%,> 75%,70%,–,–,lowest DC50 value,–,0.123 nM
C[C@@]1(O)CCCN(c2nc(OCC3(CN4CCC5(CC4)CC(N4CCC(c6ccc7c8c(cccc68)C(=O)N7C6CCC(=O)NC6=O)CC4)C5)CC3)nc3c(F)c(-c4cc(N)cc(Cl)c4C(F)(F)F)ncc23)C1 (some centres unmarked) [Compound 200],45.8 nM,> 1000 nM,–,–,–,–,> 1000 nM,–,70 to 75%,> 75%,–,–,–,–,–,0.991 nM
CCc1c(F)ccc2cc(O)cc(-c3ncc4c(N5CCC[C@]6(CCO6)C5)nc(OCC5(CN6CCC7(CC6)CC(N6CCC(c8ccc9c(C%10CCC(=O)NC%10=O)nn(C)c9c8)CC6)C7)CC5)nc4c3F)c12 (some centres unmarked) [Compound 201],2.09 nM,4.98 nM,–,–,–,< 1 nM,9.92 nM,–,> 75%,> 75%,80%,–,–,–,–,0.256 nM
CCc1c(F)ccc2cc(O)cc(-c3ncc4c(N5CCC[C@]6(CCO6)C5)nc(OCC5(CN6CC(C(=O)N7CCC(c8ccc9c(C%10CCC(=O)NC%10=O)nn(C)c9c8)CC7)C6)CC5)nc4c3F)c12 (some centres unmarked) [Compound 207],–,198 nM,–,–,–,–,–,–,30 to 60%,60 to 70%,–,–,–,–,–,3.53 nM
CCc1c(F)ccc2cc(O)cc(-c3ncc4c(N5CCC[C@]6(CCO6)C5)nc(OCC5(CN6CCC7(CC6)CC(N6CCC(c8ccc9c(=O)n(C%10CCC(=O)NC%10=O)ccc9c8)CC6)C7)CC5)nc4c3F)c12 (some centres unmarked) [Compound 234],4.4 nM,43.2 nM,–,–,–,11 to 50 nM,17.9 nM,–,30 to 60%,70 to 75%,65%,–,–,–,–,–
CCc1c(F)ccc2cc(O)cc(-c3ncc4c(N5CCC[C@]6(CCO6)C5)nc(OCC5(CN6CCC(CN7Cc8cc9c(cc8C7)C(=O)N(C7CCC(=O)NC7=O)C9=O)CC6)CC5)nc4c3F)c12 (some centres unmarked) [Compound 237],–,–,–,–,–,–,–,–,10 to 30%,10 to 30%,–,–,–,–,–,–
CCc1c(F)ccc2cc(O)cc(-c3ncc4c(N5CCC[C@]6(CCO6)C5)nc(OCC5(CN6CCC(CN7CCC(c8ccc9ccn(C%10CCC(=O)NC%10=O)c(=O)c9c8)CC7)CC6)CC5)nc4c3F)c12 (some centres unmarked) [Compound 244],–,–,–,–,–,–,–,–,30 to 60%,30 to 60%,–,–,–,–,–,–
